{"source": "patent US12622910B2", "about": "“Inhibitors of Bruton's tyrosine kinase and methods of their use” (Janssen Pharmaceutica NV, priority 2021, dated 2026)", "key": {"[1]": {"test": "Blood-to-plasma concentration ratio", "assay_type": "in vitro ADME", "conditions": "mouse, fresh blood"}, "CYP3A4 (CYP3A)": {"biological_target": "CYP3A4 (CYP3A) (Homo sapiens, UniProt P08684)", "sequence (P08684 2-503)": "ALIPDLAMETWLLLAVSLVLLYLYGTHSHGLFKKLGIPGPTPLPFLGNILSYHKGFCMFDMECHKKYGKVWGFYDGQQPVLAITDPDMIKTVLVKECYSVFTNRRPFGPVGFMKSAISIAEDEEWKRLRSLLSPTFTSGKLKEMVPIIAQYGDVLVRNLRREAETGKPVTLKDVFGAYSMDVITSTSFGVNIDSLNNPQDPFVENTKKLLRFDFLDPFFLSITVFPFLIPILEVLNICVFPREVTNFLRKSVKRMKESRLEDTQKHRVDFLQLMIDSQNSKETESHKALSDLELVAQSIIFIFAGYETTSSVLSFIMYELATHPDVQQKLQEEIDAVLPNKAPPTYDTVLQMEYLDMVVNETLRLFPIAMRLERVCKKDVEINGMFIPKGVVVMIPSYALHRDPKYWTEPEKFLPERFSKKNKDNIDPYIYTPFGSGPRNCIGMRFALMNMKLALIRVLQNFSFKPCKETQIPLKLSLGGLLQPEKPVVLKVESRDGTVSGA", "test": "Time-dependent inhibition of CYP3A in human liver microsomes", "assay_type": "in vitro ADME", "conditions": "probe testosterone", "procedure": "To assess the potential of the compound of Formula (III) to be a time-dependent inhibitor of CYP3A, human liver microsomes were preincubated for 30 minutes at 37° C. with the compound of Formula (III) at concentrations up to 10 μM, and CYP3A activity was measured using testosterone as a probe substrate. […] The potential of the compound of Formula (III) to induce CYPs at the transcriptional level was assessed using Puracyp™ DPX2 (CYP3A4, PXR) and DRE (CYP1A2, AhR) luciferase-reporter cell lines; rifampicin and omeprazole were used as positive controls for CYP3A and CYP1A induction, respectively. The activation by the compound of Formula (III) was <20% of positive control values for PXR (6.6% and 14.1% at 1 and 10 μM change, respectively) or AhR (0.1% and 0.3% change, respectively). […] Potential involvement of various CYP isoforms in the metabolism of the compound of Formula (III) was investigated by measuring the parent compound remaining after 1-hour incubation with the compound of Formula (III) (1 μM) with recombinant CYPs (rCYPs) at 100 pmol P450/mL in the presence of 1 mM NADPH at 37° C. The only isozyme that produced notable the compound of Formula (III) turnover with <1% parent remaining after 1-hour incubation was CYP3A4 (FIG. 24). […]"}, "CYP1A": {"test_system": "CYP1A", "test": "CYP induction in plated human hepatocytes, phenacetin probe", "assay_type": "in vitro ADME", "conditions": "48 hours"}, "[2]": {"test": "Preclinical PK, oral and IV", "conditions": "dog, in vivo"}, "[3]": {"test_system": "IL-10 secretion, ABC-DLBCL OCI-LY-10 cells", "test": "IL-10 secretion by OCI-LY-10 cells (MesoScale)", "assay_type": "cell-based", "conditions": "Homo sapiens, OCI-Ly10; 6 independent experiments; read-out: IC50, IL-10 secretion (mean±SEM)", "procedure": "(§1) In Vitro Activity in DLBCL Cell Lines—NFκB signaling regulates the secretion of multiple cytokines, including interleukin (IL)-6 and IL-10. Secretion of IL-6 and -10 by ABC-DLBCL OCI-LY-10 cells was measured using a MesoScale assay. […] To determine the anti-proliferative activity of the compound of formula (III), several ABC-DLBCL cell lines—OCI-LY-3, OCI-LY-10, TMD8, and HBL-1—were treated for 8 days. […] The OCI-LY-3 cell line, which harbors a CARD11 mutation downstream of BTK in the NF-κB signaling pathway, was completely insensitive to the compound of Formula (III) up to 2 μM. In 2 experiments, OCI-LY-3 cells were insensitive to the compound of Formula (III) at all concentrations up to 10 μM."}, "[4]": {"test_system": "HBL1 (CD79b/Myd88/A20 mutant)", "test": "Antiproliferative activity, 8 days", "assay_type": "cell-based", "conditions": "Homo sapiens, HBL1, 192 h, n = 4", "procedure": "as §1"}, "[5]": {"test_system": "OCI-LY10 (CD79b/Myd88/A20 mutant)", "test": "Antiproliferative activity, 8 days", "assay_type": "cell-based", "conditions": "Homo sapiens, OCI-Ly10, 192 h, n = 4", "procedure": "as §1"}, "[6]": {"test_system": "TMD8 (CD79b/Myd88/A20 mutant)", "test": "Antiproliferative activity, 8 days", "assay_type": "cell-based", "conditions": "Homo sapiens, TMD8, 192 h, n = 4", "procedure": "as §1"}, "BTK": {"biological_target": "BTK (Homo sapiens, UniProt Q06187)", "sequence (Q06187 whole entry)": "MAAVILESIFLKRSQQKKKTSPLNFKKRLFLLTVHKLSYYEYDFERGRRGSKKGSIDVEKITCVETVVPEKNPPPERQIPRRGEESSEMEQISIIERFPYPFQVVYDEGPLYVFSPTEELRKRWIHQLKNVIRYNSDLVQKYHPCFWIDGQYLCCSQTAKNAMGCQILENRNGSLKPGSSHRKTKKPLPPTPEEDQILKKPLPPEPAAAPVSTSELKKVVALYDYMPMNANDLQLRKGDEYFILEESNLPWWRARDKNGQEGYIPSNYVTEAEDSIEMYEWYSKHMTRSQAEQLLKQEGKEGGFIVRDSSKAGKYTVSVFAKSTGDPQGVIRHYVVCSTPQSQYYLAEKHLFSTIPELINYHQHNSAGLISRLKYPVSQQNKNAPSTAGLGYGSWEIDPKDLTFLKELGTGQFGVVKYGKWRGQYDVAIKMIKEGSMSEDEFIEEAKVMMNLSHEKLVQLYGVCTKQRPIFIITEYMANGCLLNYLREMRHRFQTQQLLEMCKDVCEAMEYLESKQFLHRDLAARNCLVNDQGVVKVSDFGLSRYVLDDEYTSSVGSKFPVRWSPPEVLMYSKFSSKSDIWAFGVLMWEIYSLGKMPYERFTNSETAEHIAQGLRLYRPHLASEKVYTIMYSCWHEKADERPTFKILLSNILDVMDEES", "test": "BTK protein occupancy in OCI-LY10 tumor lysates of NSG mice", "assay_type": "in vivo", "set-up": "free BTK protein in OCI-LY10 DLBCL tumor lysates harvested using an BTK occupancy assay; endogenous in cells; host or cells: OCI-LY10 human ABC-DLBCL cells grown as SC xenograft in NSG mice; tumour lysates", "conditions": "for receptor occupancy at 10 mg/kg / receptor occupancy at 30 mg/kg / receptor occupancy at 100 mg/kg: OCI-Ly10, mouse", "procedure": "FIG. 19 depicts BTK protein occupancy in OCI-LY10 ABC-DLBCL tumor lysates of NSG mice treated with the compound of Formula (III). Unoccupied BTK protein levels are graphed as % normalized to vehicle control BTK levels ±SEM. Female mice were implanted SC on the right flank on day 0. Tumors were established 39 days post implantation, randomized into experimental groups and dosed orally with a single dose (n=5/dose level/time point). Tumor samples were harvested 4, 12 and 24 hours after compound administration.\nTo evaluate the duration of signaling shutdown and occupancy of BTK protein after compound administration, we determined the amount of free BTK protein in OCI-LY10 DLBCL tumor lysates harvested using an BTK occupancy assay. […] BTK protein occupancy levels remained high with 71%, 94% and 96%, respectively, at 12 hours and 70%, 91% and 85%, respectively after 24 hours. (FIG. 19). The antitumor efficacy of compound of Formula (III) was assessed in mice bearing established SC OCI-LY10 human CD79b mutant DLBCL xenografts in female NSG mice, dosed either once (QD) or twice (BID) a day. Analysis of tumor growth inhibition was performed 14 days into the 21-day treatment period (Day 45) as that was the last day when 2/3 of the vehicle controls remained on the study. Compound of Formula (III) induced tumor growth inhibition in the OCI-LY10 model at all dose levels. […] Taken together, the in vivo data support a first in-human trial of the compound of Formula (III) in combination with Venetoclax in patients with B cell lymphomas."}}}
{"smiles": "C=CC(=O)N[C@H]1CCC[C@H]1NC(=O)c1sc2nccc3c2c1NC(=O)N3c1cnc(CC(C)C)cc1C", "note": "(atropisomer, axis not shown) [compound of Formula (III), N-((1R,2S)-2-Acrylamidocyclopentyl)-5-(S)-(6-isobutyl-4-methylpyridin-3-yl)-4-oxo-4,5-dihydro-3H-1-thia-3,5,8-triazaacenaphthylene-2-carboxamide]", "values": [{"measurement": "blood plasma ratio at 1 μM", "setting": "[1]", "value": 0.84}, {"measurement": "IC50", "setting": "CYP3A4 (CYP3A); with 30 min preincubation", "value": 9.81, "unit": "µM"}, {"measurement": "IC50", "setting": "CYP3A4 (CYP3A); without preincubation", "value": "> 10", "unit": "µM"}, {"measurement": "change in CYP1A enzyme activity", "setting": "CYP1A; 1 μM", "value": 0.2, "unit": "%"}, {"measurement": "change in CYP1A enzyme activity", "setting": "CYP1A; 10 μM", "value": 1.0, "unit": "%"}, {"measurement": "clearance", "setting": "[2]; iv", "value": "0.66 ± 0.18", "unit": "L/h/kg"}, {"measurement": "half-life", "setting": "[2]; iv, read-out: IV T1/2 (converted)", "value": "66 ± 6", "unit": "min"}, {"measurement": "Vd", "setting": "[2]; iv, read-out: Vss", "value": "0.8 ± 0.2", "unit": "L/kg"}, {"measurement": "Cmax", "setting": "[2]; oral", "value": "0.89 ± 0.286", "unit": "µg/mL"}, {"measurement": "Tmax", "setting": "[2]; oral", "value": "48 ± 18", "unit": "min"}, {"measurement": "AUC(0-inf)", "setting": "[2]; oral, read-out: Oral AUCinf", "value": "1.96 ± 0.421", "unit": "µg·h/mL"}, {"measurement": "IC50", "setting": "[3]", "value": "0.018 ± 0.007", "unit": "µM"}, {"measurement": "IC50", "setting": "[4]", "value": 0.03, "unit": "µM"}, {"measurement": "IC50", "setting": "[5]", "value": 0.018, "unit": "µM"}, {"measurement": "IC50", "setting": "[6]", "value": 0.034, "unit": "µM"}, {"measurement": "BTK protein occupancy in tumor", "setting": "BTK; 1 mg/kg", "value": "No BTK occupancy"}, {"measurement": "BTK protein occupancy in tumor", "setting": "BTK; 3 mg/kg", "value": "No BTK occupancy"}, {"measurement": "receptor occupancy at 10 mg/kg", "setting": "BTK; 4 hours", "value": 54, "unit": "%"}, {"measurement": "receptor occupancy at 10 mg/kg", "setting": "BTK; 12 hours", "value": 71, "unit": "%"}, {"measurement": "receptor occupancy at 10 mg/kg", "setting": "BTK; 24 hours", "value": 70, "unit": "%"}, {"measurement": "receptor occupancy at 30 mg/kg", "setting": "BTK; 4 hours", "value": 90, "unit": "%"}, {"measurement": "receptor occupancy at 30 mg/kg", "setting": "BTK; 12 hours", "value": 94, "unit": "%"}, {"measurement": "receptor occupancy at 30 mg/kg", "setting": "BTK; 24 hours", "value": 91, "unit": "%"}, {"measurement": "receptor occupancy at 100 mg/kg", "setting": "BTK; 4 hours", "value": 95, "unit": "%"}, {"measurement": "receptor occupancy at 100 mg/kg", "setting": "BTK; 12 hours", "value": 96, "unit": "%"}, {"measurement": "receptor occupancy at 100 mg/kg", "setting": "BTK; 24 hours", "value": 85, "unit": "%"}]}
